Measurements reported in US20260184687A1, “DIHYDROINDENE DERIVATIVES AS MALT1 INHIBITORS” (C4X Discovery Limited, priority 2022, published 2026).

Target: T1, FL hMALT1 enzyme (Homo sapiens, UniProt Q9UDY8)
T1 sequence (Q9UDY8 1-824): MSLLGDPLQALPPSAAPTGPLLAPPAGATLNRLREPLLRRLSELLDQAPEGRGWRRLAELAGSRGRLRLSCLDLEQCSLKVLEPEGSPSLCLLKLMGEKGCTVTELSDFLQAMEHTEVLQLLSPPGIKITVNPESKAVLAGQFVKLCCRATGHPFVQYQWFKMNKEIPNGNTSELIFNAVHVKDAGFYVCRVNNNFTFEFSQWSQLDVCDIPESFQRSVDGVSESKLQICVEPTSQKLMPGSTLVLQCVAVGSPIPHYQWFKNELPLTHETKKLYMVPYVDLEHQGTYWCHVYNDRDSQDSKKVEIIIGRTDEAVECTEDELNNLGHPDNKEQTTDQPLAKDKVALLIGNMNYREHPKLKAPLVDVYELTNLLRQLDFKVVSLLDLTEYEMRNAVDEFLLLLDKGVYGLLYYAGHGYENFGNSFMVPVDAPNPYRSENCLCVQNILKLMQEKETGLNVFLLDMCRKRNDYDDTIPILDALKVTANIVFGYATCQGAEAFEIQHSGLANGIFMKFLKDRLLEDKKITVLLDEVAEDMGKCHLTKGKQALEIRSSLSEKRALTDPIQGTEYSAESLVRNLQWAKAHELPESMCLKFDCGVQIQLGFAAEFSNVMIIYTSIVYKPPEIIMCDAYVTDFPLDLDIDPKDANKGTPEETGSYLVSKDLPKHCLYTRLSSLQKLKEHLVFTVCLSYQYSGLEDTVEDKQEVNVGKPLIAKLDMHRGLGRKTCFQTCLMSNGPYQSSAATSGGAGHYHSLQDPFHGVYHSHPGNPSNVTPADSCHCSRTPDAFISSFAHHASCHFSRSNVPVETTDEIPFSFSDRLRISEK
Experiment: biochemical
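Further: Cell-free protease assay: enzyme preincubated with compound 30 min at room temperature, then cleavage of fluorogenic Ac-LVSR-AMC substrate (100 µM) tracked by fluorescence (ex 360/em 460 nm).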

Row | IC50 | SMILES
1 | 1600 nM | CN(C(=O)C1CCS(=O)(=O)CC1)[C@@H](c1ccc(NC2Cc3ccc(F)c(Cl)c3C2)cn1)C(F)(F)F (single isomer, unassigned) [Example 266]
2 | 280 nM | CN(C(=O)C1CCS(=O)(=O)CC1)[C@@H](c1ccc(NC2Cc3cccc(F)c3C2)cn1)C(F)(F)F (single isomer, unassigned) [Example 274]
3 | 860 nM | CN(C(=O)C1CCS(=O)(=O)CC1)[C@@H](c1ccc(NC2Cc3cccc(C(F)(F)F)c3C2)nc1)C(F)(F)F (single isomer, unassigned) [Example 280]
4 | 290 nM | CN(C(=O)C1CCS(=O)(=O)CC1)[C@@H](c1ccc(NC2Cc3cc(F)cc(Cl)c3C2)cn1)C(F)(F)F (single isomer, unassigned) [Example 287]
5 | 220 nM | CN(C(=O)C1CCS(=O)(=O)CC1)[C@@H](c1ccc(NC2Cc3ccc(C4CC4)cc3C2)cn1)C(F)(F)F (single isomer, unassigned) [Example 307]
6 | 190 nM | CN(C(=O)C1CCNC(=O)C1)[C@@H](c1ccc(N[C@H]2Cc3ccc(Cl)cc3C2)cn1)C(F)(F)F (single isomer, unassigned) [Example 313]
7 | 750 nM | CN(C(=O)[C@H]1CCC(=O)NC1)[C@@H](c1ccc(NC2Cc3ccc(Cl)c(Cl)c3C2)cn1)C(F)(F)F (single isomer, unassigned) [Example 320]
8 | 310 nM | CN(C(=O)C12CC(NS(C)(=O)=O)(C1)C2)[C@@H](c1ccc(NC2Cc3ccc(Cl)c(Cl)c3C2)cn1)C(F)(F)F (single isomer, unassigned) [Example 322]
9 | 240 nM | CN(C(=O)C1CCN(S(C)(=O)=O)CC1)[C@@H](c1ccc(NC2Cc3ccc(Cl)c(Cl)c3C2)cn1)C(F)(F)F (single isomer, unassigned) [Example 326]
10 | 570 nM | CN(C(=O)[C@@H]1CNC(=O)C1)[C@@H](c1ccc(NC2Cc3ccc(Cl)c(C4CC4)c3C2)cn1)C(F)(F)F (single isomer, unassigned) [Example 327]
11 | 400 nM | CN(C(=O)C1CCS(=O)(=O)CC1)[C@@H](c1ccc(NC2Cc3ccc(Cl)c(F)c3C2)nc1)C(F)(F)F (single isomer, unassigned) [Example 331]
12 | 300 nM | CNC(=O)N1CC(C(=O)N(C)[C@@H](c2ccc(NC3Cc4ccc(Cl)c(Cl)c4C3)cn2)C(F)(F)F)C1 (single isomer, unassigned) [Example 334]

Further lines, the molecule ahead of its results:

Row | SMILES | IC50
13 | CN(C(=O)C1CCS(=O)(=O)CC1)[C@@H](c1ccc(NC2Cc3ccc(F)cc3C2)cn1)C(F)(F)F (single isomer, unassigned) [Example 259] | 180 nM
14 | CN(C(=O)C1CCS(=O)(=O)CC1)[C@@H](c1ccc(NC2Cc3cccc(Cl)c3C2)cn1)C(F)(F)F (single isomer, unassigned) [Example 264] | 1200 nM
15 | CN(C(=O)C1CCS(=O)(=O)CC1)[C@@H](c1ccc(NC2Cc3cc(F)cc(F)c3C2)cn1)C(F)(F)F (single isomer, unassigned) [Example 268] | 3400 nM
16 | CN(C(=O)C1CCS(=O)(=O)CC1)[C@@H](c1ccc(NC2Cc3cc(F)cc(F)c3C2)cn1)C(F)(F)F (single isomer, unassigned) [Example 269] | 150 nM
17 | CN(C(=O)C1CCS(=O)(=O)CC1)[C@@H](c1ccc(NC2Cc3cc(Cl)cc(F)c3C2)cn1)C(F)(F)F (single isomer, unassigned) [Example 271] | 3300 nM
18 | CN(C(=O)C1CCS(=O)(=O)CC1)[C@@H](c1ccc(NC2Cc3cccc(F)c3C2)cn1)C(F)(F)F (single isomer, unassigned) [Example 275] | 520 nM
19 | CN(C(=O)C1CCS(=O)(=O)CC1)[C@@H](c1ccc(NC2Cc3ccc(Cl)c(F)c3C2)cn1)C(F)(F)F (single isomer, unassigned) [Example 276] | 780 nM
20 | CN(C(=O)C1CCS(=O)(=O)CC1)[C@@H](c1ccc(NC2Cc3ccc(Cl)c(Cl)c3C2)cn1)C(F)(F)F (single isomer, unassigned) [Example 278] | 350 nM
21 | CN(C(=O)C1CCS(=O)(=O)CC1)[C@@H](c1ccc(NC2Cc3cc(Cl)cc(Cl)c3C2)cn1)C(F)(F)F (single isomer, unassigned) [Example 282] | 340 nM
22 | CN(C(=O)C1CCS(=O)(=O)CC1)[C@@H](c1ccc(NC2Cc3cc(Cl)cc(Cl)c3C2)cn1)C(F)(F)F (single isomer, unassigned) [Example 283] | 910 nM
23 | CN(C(=O)C1CCS(=O)(=O)CC1)[C@@H](c1ccc(NC2Cc3ccc(Br)cc3C2)cn1)C(F)(F)F (single isomer, unassigned) [Example 285] | 690 nM
24 | CN(C(=O)C1CCS(=O)(=O)CC1)[C@@H](c1ccc(NC2Cc3cc(F)cc(Cl)c3C2)cn1)C(F)(F)F (single isomer, unassigned) [Example 286] | 730 nM
25 | CN(C(=O)C1CCS(=O)(=O)CC1)[C@@H](c1ccc(NC2Cc3ccc(Cl)cc3C2)nc1)C(F)(F)F (single isomer, unassigned) [Example 288] | 1640 nM
26 | CN(C(=O)C1CCS(=O)(=O)CC1)[C@@H](c1ccc(NC2Cc3c(F)ccc(Cl)c3C2)cn1)C(F)(F)F (single isomer, unassigned) [Example 294] | 2400 nM
27 | CN(C(=O)C1CCS(=O)(=O)CC1)[C@@H](c1ccc(NC2Cc3cc(F)c(F)c(F)c3C2)cn1)C(F)(F)F (single isomer, unassigned) [Example 295] | 1900 nM
28 | CN(C(=O)C1CCS(=O)(=O)CC1)[C@@H](c1ccc(NC2Cc3cc(F)c(F)c(F)c3C2)cn1)C(F)(F)F (single isomer, unassigned) [Example 296] | 1400 nM
29 | CN(C(=O)C1CCS(=O)(=O)CC1)[C@@H](c1ccc(NC2Cc3ccc(Cl)c(C4CC4)c3C2)cn1)C(F)(F)F (single isomer, unassigned) [Example 305] | 300 nM
30 | CN(C(=O)C1CCS(=O)(=O)CC1)[C@@H](c1ccc(NC2Cc3ccc(C4CC4)cc3C2)cn1)C(F)(F)F (single isomer, unassigned) [Example 308] | 1400 nM
31 | CN(C(=O)C1CCS(=O)(=O)CC1)[C@@H](c1ccc(NC2Cc3ccc(Cl)c(C(F)(F)F)c3C2)cn1)C(F)(F)F (single isomer, unassigned) [Example 311] | 300 nM
32 | CN(C(=O)[C@@H]1CNC(=O)C1)[C@@H](c1ccc(N[C@H]2Cc3ccc(Cl)c(F)c3C2)cn1)C(F)(F)F (single isomer, unassigned) [Example 316] | 1100 nM
33 | CN(C(=O)[C@@H]1CNC(=O)C1)[C@@H](c1ccc(NC2Cc3ccc(Cl)c(Cl)c3C2)cn1)C(F)(F)F (single isomer, unassigned) [Example 318] | 660 nM
34 | CN(C(=O)[C@H]1CCC(=O)NC1)[C@@H](c1ccc(NC2Cc3ccc(Cl)c(C4CC4)c3C2)cn1)C(F)(F)F (single isomer, unassigned) [Example 329] | 680 nM
35 | CN(C(=O)[C@H]1CCC(=O)NC1)[C@@H](c1ccc(NC2Cc3ccc(Cl)c(F)c3C2)cn1)C(F)(F)F (single isomer, unassigned) [Example 336] | 690 nM
36 | CN(C(=O)[C@H]1CNC(=O)C1)[C@@H](c1ccc(NC2Cc3ccc(Cl)c(F)c3C2)nc1)C(F)(F)F (single isomer, unassigned) [Example 338] | 960 nM
37 | CN(C(=O)C1CC2(CCC(=O)N2)C1)[C@@H](c1ccc(NC2Cc3ccc(Cl)c(Cl)c3C2)cn1)C(F)(F)F (single isomer, unassigned) [Example 340] | 560 nM
